Data published in paper PMC3601784 (Chromatographia, 2012).

Tests used:
Human recombinant sEH = biological target: T1, Human recombinant sEH (Homo sapiens, UniProt P34913); experiment: LC-BCD/MS; assay type: biochemical; details: mixture of sEHi 6, sEHi 1, sEHi 7, diclofenac and phenylbutazone separated by LC
T1 sequence (P34913 1-555): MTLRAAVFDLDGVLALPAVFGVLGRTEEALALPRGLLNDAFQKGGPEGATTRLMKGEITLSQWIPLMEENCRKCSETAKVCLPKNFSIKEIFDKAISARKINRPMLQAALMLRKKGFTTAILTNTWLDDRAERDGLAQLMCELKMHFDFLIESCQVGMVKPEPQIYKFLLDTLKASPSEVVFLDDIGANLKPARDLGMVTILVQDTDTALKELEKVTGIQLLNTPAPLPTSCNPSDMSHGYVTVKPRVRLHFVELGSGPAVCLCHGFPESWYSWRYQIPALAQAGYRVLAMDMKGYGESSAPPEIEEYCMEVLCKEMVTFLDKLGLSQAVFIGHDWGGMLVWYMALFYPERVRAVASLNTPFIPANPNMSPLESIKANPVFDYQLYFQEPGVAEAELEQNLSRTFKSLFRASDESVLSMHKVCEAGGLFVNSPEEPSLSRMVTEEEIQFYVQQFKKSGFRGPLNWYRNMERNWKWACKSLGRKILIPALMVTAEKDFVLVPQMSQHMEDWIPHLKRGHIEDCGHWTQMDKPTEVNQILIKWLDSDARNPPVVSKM

[1] = Solubility of PHOME in assay buffer; assay type: physicochemical; details: BIS–TRIS buffer with 0.1 g/L Tween 80, in the superloop

Structure (SMILES): CCCCC1C(=O)N(c2ccccc2)N(c2ccccc2)C1=O [phenylbutazone]
- sEH activity (BCD peak) in a standard mixture (Human recombinant sEH): without sEH activity

Structure (SMILES): COc1ccc2cc(C(C#N)OC(=O)CC3OC3c3ccccc3)ccc2c1 (centres unmarked) [PHOME, (3-phenyl-oxiranyl)-acetic acid cyano-(6-methoxy-naphthalen-2-yl)-methyl ester]
- limit of solubility [1]: ~30 µM
